IC50 data for 44 compounds are collected here from US20210024545A1, “SUBSTITUTED DIAZAHETERO-BICYCLIC COMPOUNDS AND THEIR USE” (Bayer Aktiengesellschaft, priority 2016, published 2021).

One assay concerns the target human TASK-1 (Homo sapiens, UniProt O14649). The experiment in a line: Inhibition of recombinant TASK-1 in stably transfected CHO cells, KCl-induced depolarization, voltage-sensitive dye (B-2). It counts as cell-based. The arrangement: expressed in transfected cells; host or cells: stably transfected CHO cells. The settings on record: depolarization induced by 40 mM potassium chloride, some mean values from multiple determinations. The method, then:
(§1) B-2. Inhibition of Recombinant TASK-1 and TASK-3 In Vitro
(§2) The investigations on the inhibition of the recombinant TASK-1 and TASK-3 channels were conducted using stably transfected CHO cells. The compounds of the invention were tested here with administration of 40 mM of potassium chloride in the presence of a voltage-sensitive dye using the method described in detail in the following references [Whiteaker et al., Validation of FLIPR membrane potential dye for high-throughput screening of potassium channel modulators, J. Biomol. Screen. 6 (5), 305-312 (2001); Molecular Devices FLIPR Application Note: Measuring membrane potential using the FLIPR® membrane potential assay kit on Fluorometric Imaging Plate Reader (FLIPR®) systems, http://www.moleculardevices.com/reagents-supplies/assay-kits/ion-channels/flipr-membrane-potential-assay-kits]. The activity of the test substances was determined as their ability to inhibit a depolarization induced in the recombinant cells by 40 mM potassium chloride. The concentration which can block half of this depolarization is referred to as IC50).
(§3) Table 2 below lists the IC50 values from this assay determined for individual working examples of the invention (some as mean values from multiple independent individual determinations): […]

In the next assay the target is human TASK-3 (Homo sapiens, UniProt Q9NPC2). Description: Inhibition of recombinant TASK-3 in stably transfected CHO cells, KCl-induced depolarization, voltage-sensitive dye (B-2). It counts as cell-based. Set-up: expressed in transfected cells; host or cells: stably transfected CHO cells. Conditions: depolarization induced by 40 mM potassium chloride, some mean values from multiple determinations. The method, then: as §1, §2, §3
Sequence of human TASK-3 (Q9NPC2 whole entry): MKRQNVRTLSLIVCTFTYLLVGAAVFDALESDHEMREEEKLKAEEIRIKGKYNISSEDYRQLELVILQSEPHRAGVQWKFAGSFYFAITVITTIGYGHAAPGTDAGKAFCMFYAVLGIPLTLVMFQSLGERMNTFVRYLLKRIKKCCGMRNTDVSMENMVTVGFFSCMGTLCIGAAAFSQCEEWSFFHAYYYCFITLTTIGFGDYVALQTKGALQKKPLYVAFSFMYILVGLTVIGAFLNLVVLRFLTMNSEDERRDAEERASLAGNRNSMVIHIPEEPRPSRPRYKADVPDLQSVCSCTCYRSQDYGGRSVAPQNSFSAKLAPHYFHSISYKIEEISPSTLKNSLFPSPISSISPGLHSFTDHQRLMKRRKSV

Sequence of human TASK-1 (O14649 whole entry): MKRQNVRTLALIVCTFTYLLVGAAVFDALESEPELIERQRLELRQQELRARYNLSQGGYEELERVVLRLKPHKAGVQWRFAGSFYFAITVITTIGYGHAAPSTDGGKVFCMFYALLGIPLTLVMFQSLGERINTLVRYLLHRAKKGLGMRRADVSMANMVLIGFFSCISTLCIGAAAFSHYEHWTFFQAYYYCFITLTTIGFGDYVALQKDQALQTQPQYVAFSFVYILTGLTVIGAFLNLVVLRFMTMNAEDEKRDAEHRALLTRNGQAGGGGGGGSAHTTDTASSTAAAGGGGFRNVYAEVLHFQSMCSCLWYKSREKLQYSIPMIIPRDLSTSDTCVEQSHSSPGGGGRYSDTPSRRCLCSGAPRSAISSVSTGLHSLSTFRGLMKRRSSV

As a reminder, the IC50 is the concentration that gives 50% inhibition. For `O=C(c1cccc(Cl)c1)N1C2COCC1CN(Cc1c(-c3ccc(Cl)cc3)nc3ccccn13)C2` [Example 79], the IC50 at human TASK-1 came out at 1000 nM; at human TASK-3 it was 190 nM.
For `O=C(c1cccc(OC(F)(F)F)n1)N1C2COCC1CN(Cc1c(-c3ccc(Cl)cc3)nc3ccccn13)C2` [Example 80], the IC50 on human TASK-1 came to 310 nM; at human TASK-3, 15 nM.
For `COc1ccc(C)c(C(=O)N2C3COCC2CN(Cc2c(-c4ccc(Cl)cc4)nc4ccccn24)C3)n1` [Example 81] the same measures were 520 nM and 25 nM.
On the same counts, the results for `O=C(c1ccccc1F)N1CC2CCC(C1)N2Cc1c(-c2ccc(Br)cc2)nc2ccccn12` [Example 82] are 230 nM and 420 nM.
On the same counts, the results for `COc1cccc(C(=O)N2CC3CCC(C2)N3Cc2c(-c3ccc(Br)cc3)nc3ccccn23)n1` [Example 83] are 134 nM and 14 nM.
On to `COc1cccc(C(=O)N2CC3CCC(C2)N3Cc2c(-c3ccc(Br)cc3)nc3ccccn23)c1` [Example 84], for which the IC50 at human TASK-1 was 1100 nM; at human TASK-3, 400 nM.
For `O=C(C1CCCC1)N1CC2CCC(C1)N2Cc1c(-c2ccc(Br)cc2)nc2ccccn12` [Example 85] the same measures were 520 nM and 53 nM.
Take `O=C(c1ccccc1F)N1CC2CCC(C1)N2Cc1c(-c2ccc(Cl)cc2)nc2ccccn12` [Example 87]: the IC50 at human TASK-1 came out at 583 nM; on human TASK-3, 160 nM.
On the same counts, the results for `Cc1ccc(F)cc1C(=O)N1CC2CCC(C1)N2Cc1c(-c2ccc(Cl)cc2)nc2ccccn12` [Example 88] are 766 nM and 210 nM.
For the compound `COc1ccc(F)cc1C(=O)N1CC2CCC(C1)N2Cc1c(-c2ccc(Cl)cc2)nc2ccccn12` [Example 89], the figures for the IC50 on human TASK-1 and on human TASK-3 were 827 nM and 220 nM, respectively.
Consider `Cc1ccccc1C(=O)N1CC2CCC(C1)N2Cc1c(-c2ccc(Cl)cc2)nc2ccccn12` [Example 90], for which the IC50 on human TASK-1 was determined as 958 nM; at human TASK-3, 79 nM.
For `COc1ccccc1C(=O)N1CC2CCC(C1)N2Cc1c(-c2ccc(Cl)cc2)nc2ccccn12` [Example 91] the same measures were 1350 nM and 89 nM.
For `O=C(C1CCCCC1)N1CC2CCC(C1)N2Cc1c(-c2ccc(Cl)cc2)nc2ccccn12` [Example 93] the same measures were 2300 nM and 510 nM.
Consider `CC(C)c1ccc(-c2nc3ccccn3c2CN2C3CCC2CN(C(=O)c2ccccc2F)C3)cc1` [Example 94], for which the results for the IC50 on human TASK-1 and on human TASK-3 were 530 nM and 130 nM, respectively.
For `COc1cccc(C(=O)N2CC3CCC(C2)N3Cc2c(-c3ccc(C(C)C)cc3)nc3ccccn23)n1` [Example 95] the same measures were 1700 nM and 350 nM.
For `O=C(C1CCCC1)N1C2CCC1CN(Cc1c(-c3ccc(Br)cc3)nc3ccccn13)C2` [Example 96] the same measures were 240 nM and 4.5 nM.
On the same counts, the results for `O=C(c1ccccc1F)N1C2CCC1CN(Cc1c(-c3ccc(Br)cc3)nc3ccccn13)C2` [Example 97] are 390 nM and 7.8 nM.
In the case of `COc1cccc(C(=O)N2C3CCC2CN(Cc2c(-c4ccc(Br)cc4)nc4ccccn24)C3)n1` [Example 98], the IC50 on human TASK-1 turned out to be 450 nM; at human TASK-3 it was 14 nM.
For `COc1cccc(C(=O)N2C3CCC2CN(Cc2c(-c4ccc(Br)cc4)nc4ccccn24)C3)c1` [Example 99] the same measures were 470 nM and 16 nM.
For `Cc1ccccc1C(=O)N1C2CCC1CN(Cc1c(-c3ccc(Cl)cc3)nc3ccccn13)C2` [Example 100] the same measures were 250 nM and 17 nM.
For the compound `O=C(C1CCC1)N1C2CCC1CN(Cc1c(-c3ccc(Cl)cc3)nc3ccccn13)C2` [Example 101], the results for the IC50 on human TASK-1 and at human TASK-3 were 370 nM and 7.2 nM, respectively.
For `COc1ccc(F)cc1C(=O)N1C2CCC1CN(Cc1c(-c3ccc(Cl)cc3)nc3ccccn13)C2` [Example 103] the same measures were 540 nM and 20 nM.
On the same counts, the results for `O=C(C1CCCCC1)N1C2CCC1CN(Cc1c(-c3ccc(Cl)cc3)nc3ccccn13)C2` [Example 105] are 830 nM and 20 nM.
Consider `O=C(c1cc(F)ccc1Cl)N1C2CCC1CN(Cc1c(-c3ccc(Cl)cc3)nc3ccccn13)C2` [Example 106], for which the IC50 on human TASK-1 came to 870 nM; on human TASK-3, 110 nM.
For `Cc1ccc(F)cc1C(=O)N1C2CCC1CN(Cc1c(-c3ccc(Cl)cc3)nc3ccccn13)C2` [Example 107] the same measures were 1000 nM and 33 nM.
On the same counts, the results for `COc1cccc(C(=O)N2C3CCC2CN(Cc2c(-c4ccc(Cl)cc4)nc4ccccn24)C3)c1` [Example 108] are 1100 nM and 95 nM.
On the same counts, the results for `COc1ccccc1C(=O)N1C2CCC1CN(Cc1c(-c3ccc(Cl)cc3)nc3ccccn13)C2` [Example 109] are 693 nM and 92 nM.
For `CC(C)c1ccc(-c2nc3ccccn3c2CN2CC3CCC(C2)N3C(=O)c2ccccc2F)cc1` [Example 110], the IC50 on human TASK-1 stood at 780 nM; at human TASK-3, 300 nM.
On the same counts, the results for `O=C(c1ccccc1F)N1C2CCC1CN(Cc1c(-c3ccc(Cl)cn3)nc3ccccn13)C2` [Example 111] are 110 nM and 25 nM.
On the same counts, the results for `COc1cccc(C(=O)N2C3CCC2CN(Cc2c(-c4ccc(Cl)cn4)nc4ccccn24)C3)c1` [Example 112] are 200 nM and 29 nM.
On to `O=C(C1CCCC1)N1C2CCC1CN(Cc1c(-c3ccc(Cl)cn3)nc3ccccn13)C2` [Example 113], for which the IC50 on human TASK-1 was 89 nM; on human TASK-3, 21 nM.
For `O=C(c1cccc(Cl)c1)N1C2CC1CN(Cc1c(-c3ccc(Cl)cc3)nc3ccccn13)C2` [Example 114] the same measures were 480 nM and 340 nM.
For the compound `O=C(C1CCCC1)N1C2CC1CN(Cc1c(-c3ccc(Cl)cc3)nc3ccccn13)C2` [Example 116], the IC50 at human TASK-1 worked out at 535 nM; at human TASK-3, 340 nM.
On the same counts, the results for `O=C(c1ccccc1F)N1C2CC1CN(Cc1c(-c3ccc(Cl)cc3)nc3ccccn13)C2` [Example 117] are 635 nM and 520 nM.
Turning to `O=C(C1CCCCC1)N1C2CC1CN(Cc1c(-c3ccc(Cl)cc3)nc3ccccn13)C2` [Example 118], the results for the IC50 at human TASK-1 and at human TASK-3 were 860 nM and 1000 nM, respectively.
On the same counts, the results for `O=C(c1cc(F)ccc1Cl)N1C2CC1CN(Cc1c(-c3ccc(Cl)cc3)nc3ccccn13)C2` [Example 119] are 1100 nM and 1500 nM.
For `O=C(c1cccc(OC(F)(F)F)c1)N1C2CC1CN(Cc1c(-c3ccc(Cl)cc3)nc3ccccn13)C2` [Example 120] the same measures were 1100 nM and 180 nM.
On the same counts, the results for `O=C(C1CCC1)N1C2CC1CN(Cc1c(-c3ccc(Cl)cc3)nc3ccccn13)C2` [Example 121] are 1700 nM and 2800 nM.
In the case of `CCOc1cccc(C(=O)N2C3CC2CN(Cc2c(-c4ccc(Cl)cc4)nc4ccccn24)C3)c1` [Example 122], the IC50 on human TASK-1 amounted to 1100 nM; at human TASK-3, 120 nM.
On the same counts, the results for `CC(C)c1ccc(-c2nc3ccccn3c2CN2CC3CC(C2)N3C(=O)C2CCCC2)cc1` [Example 123] are 2000 nM and 1600 nM.
For `O=C(c1cccc(OC(F)(F)F)n1)N1C2COCC1CN(Cc1c(-c3ccc(Cl)cn3)nc3ccccn13)C2` [Example 135, (7-{[2-(5-Chloropyridin-2-yl)imidazo[1,2-a]pyridin-3-yl]methyl}-3-oxa-7,9-diazabicyclo[3.3.1]non-9-yl)[6-(trifluoromethoxy)pyridin-2-yl]methanone] the same measures were 4100 nM and 160 nM.
On the same counts, the results for `COc1ccc(Cl)c(C(=O)N2C3COCC2CN(Cc2c(-c4ccc(Cl)cn4)nc4ccccn24)C3)n1` [Example 136, (3-Chloro-6-methoxypyridin-2-yl)(7-{[2-(5-chloropyridin-2-yl)imidazo[1,2-a]pyridin-3-yl]methyl}-3-oxa-7,9-diazabicyclo[3.3.1]non-9-yl)methanone] are 9300 nM and 44 nM.
`COc1ccc(Cl)c(C(=O)N2C3CCC2CN(Cc2c(-c4ccc(Br)cc4)nc4ccccn24)C3)n1` [Example 139, (3-{[2-(4-Bromophenyl)imidazo[1,2-a]pyridin-3-yl]methyl}-3,8-diazabicyclo[3.2.1]oct-8-yl)(3-chloro-6-methoxypyridin-2-yl)methanone]: the figures for the IC50 on human TASK-1 and on human TASK-3 were 290 nM and 18 nM, respectively.
On the same counts, the results for `COc1ccc(F)c(C(=O)N2C3CCC2CN(Cc2c(-c4ccc(Br)cc4)nc4ccccn24)C3)n1` [Example 140, (3-{[2-(4-Bromophenyl)imidazo[1,2-a]pyridin-3-yl]methyl}-3,8-diazabicyclo[3.2.1]oct-8-yl)(3-fluoro-6-methoxypyridin-2-yl)methanone] are 160 nM and 21 nM.
